In patent US9403831B2, “Triazolopyrazine derivative and use thereof” (KOREA RESEARCH INSTITUTE OF CHEMICAL TECHNOLOGY, priority 2013, dated 2016):
Counter-ions that a name gives are not always drawn.

What was measured:
[1] = biological target: c-Met enzyme (Homo sapiens (Human), UniProt P08581); assay: c-Met kinase inhibitory activity (DELFIA time-resolved fluorescence); type: biochemical; settings: c-Met kinase activity reduced to 50%
Experimental: The c-Met kinase inhibitory activity was analyzed using dissociation enhanced lanthanide fluoro-immunoassay (DELFIA, Perkin Elmer), which is a kind of time-resolved fluorescence (TRF). […] of the compound prepared in the present invention, as a test compound, was put in a Greiner 96-well V-shaped bottom plate, and a tyrosin kinase buffer ([…]) mixed with a c-Met enzyme was added thereto, and then the enzyme and the test compound were stirred for 15 minutes, followed by culturing. An ATP solution ([…]) was added thereto to proceed with a kinase reaction at room temperature for 30 minutes, and then a 50 mM […] solution (EDTA, […]) was added to stop the reaction. After that, the reaction mixture was transferred to a plate coated with Streptavidin, followed by culturing under shaking. After 2 hours, the cultured material was washed three times with a PBS-T buffer (PBS 0.05% Tween 20).
The europium-labeled anti-phosphotyrosine antibody was diluted to 1:[…] of the diluent was added per well, followed by culturing under shaking. After 1 hour, the cultured material was washed three times with a PBS-T buffer (PBS 0.05% Tween 20).

[2] = test system: gastric cancer cell line Hs746T; assay: Cancer cell proliferation inhibitory test (SRB or MTS assay, 72 hours); type: cell-based; settings: Homo sapiens, cancer cell (Hs746T) proliferation inhibition, culturing with compound for 72 hours
Experimental: The drug used in the test was diluted to a desired concentration as a test medium, and the final concentration of dimethyl sulfoxide was 0.5% or less.
All the cancer cell lines used in the test originated from the human body, and gastric cancer cell lines Hs746T and MKN-45 were used.
5×10^3 cells of Hs746T were dispensed to each well of the 96-well flat bottom micro-plate. MKN-45 was dispensed at 1×10^4 cells. The cells were cultured for 24 hours, so that the cells adhered to the bottom, and then the culture liquid was removed. The culture liquid containing each of the compounds of the present invention was added, followed by culturing for 72 hours. After the culturing with the compound was completed, the cytotoxicity was measured using protein stain reagent SRB or MTS assay.
Specifically, after the culturing with the compound of the present invention was completed, the cultured liquid was removed. Each well was treated with a cool TCA solution, and allowed to stand at 4° C. for 1 hour to fix cells. The TCA solution was removed, followed by drying at room temperature, and then a stain solution containing 0.4% SRB dissolved in 1% acetic acid solution was added, and then the mixture was allowed to stand for 30 minutes to stain cells. […] The absorbance of each well was measured at a wavelength range of 520 nm using an Eliza reader (micro-plate reader).
The drug cytotoxicity was measured from the OD values for the well added without the drug (C), each well added with the drug (T), and the well initially added with the drug (Tz): [(T−Tz)/(C−Tz)]×100 for […]; or [(T−Tz)/(Tz)]×100 for Tz>T.
The cancer cell inhibitory activity measurement using MTS assay was conducted as follows. Specifically, after the culturing with the compound of the present invention was completed, the PMS solution and MTS solution constituting the CellTiter 96® AQueous Non-Radioactive Cell Proliferation Assay product from Promega Co. were mixed, and 20 μL was put into each well. After the cells were placed in an incubator for 4 hours, and then taken out and allowed to stand at room temperature for 10 minutes.

c-Met enzyme, sequence (P08581 25-1390): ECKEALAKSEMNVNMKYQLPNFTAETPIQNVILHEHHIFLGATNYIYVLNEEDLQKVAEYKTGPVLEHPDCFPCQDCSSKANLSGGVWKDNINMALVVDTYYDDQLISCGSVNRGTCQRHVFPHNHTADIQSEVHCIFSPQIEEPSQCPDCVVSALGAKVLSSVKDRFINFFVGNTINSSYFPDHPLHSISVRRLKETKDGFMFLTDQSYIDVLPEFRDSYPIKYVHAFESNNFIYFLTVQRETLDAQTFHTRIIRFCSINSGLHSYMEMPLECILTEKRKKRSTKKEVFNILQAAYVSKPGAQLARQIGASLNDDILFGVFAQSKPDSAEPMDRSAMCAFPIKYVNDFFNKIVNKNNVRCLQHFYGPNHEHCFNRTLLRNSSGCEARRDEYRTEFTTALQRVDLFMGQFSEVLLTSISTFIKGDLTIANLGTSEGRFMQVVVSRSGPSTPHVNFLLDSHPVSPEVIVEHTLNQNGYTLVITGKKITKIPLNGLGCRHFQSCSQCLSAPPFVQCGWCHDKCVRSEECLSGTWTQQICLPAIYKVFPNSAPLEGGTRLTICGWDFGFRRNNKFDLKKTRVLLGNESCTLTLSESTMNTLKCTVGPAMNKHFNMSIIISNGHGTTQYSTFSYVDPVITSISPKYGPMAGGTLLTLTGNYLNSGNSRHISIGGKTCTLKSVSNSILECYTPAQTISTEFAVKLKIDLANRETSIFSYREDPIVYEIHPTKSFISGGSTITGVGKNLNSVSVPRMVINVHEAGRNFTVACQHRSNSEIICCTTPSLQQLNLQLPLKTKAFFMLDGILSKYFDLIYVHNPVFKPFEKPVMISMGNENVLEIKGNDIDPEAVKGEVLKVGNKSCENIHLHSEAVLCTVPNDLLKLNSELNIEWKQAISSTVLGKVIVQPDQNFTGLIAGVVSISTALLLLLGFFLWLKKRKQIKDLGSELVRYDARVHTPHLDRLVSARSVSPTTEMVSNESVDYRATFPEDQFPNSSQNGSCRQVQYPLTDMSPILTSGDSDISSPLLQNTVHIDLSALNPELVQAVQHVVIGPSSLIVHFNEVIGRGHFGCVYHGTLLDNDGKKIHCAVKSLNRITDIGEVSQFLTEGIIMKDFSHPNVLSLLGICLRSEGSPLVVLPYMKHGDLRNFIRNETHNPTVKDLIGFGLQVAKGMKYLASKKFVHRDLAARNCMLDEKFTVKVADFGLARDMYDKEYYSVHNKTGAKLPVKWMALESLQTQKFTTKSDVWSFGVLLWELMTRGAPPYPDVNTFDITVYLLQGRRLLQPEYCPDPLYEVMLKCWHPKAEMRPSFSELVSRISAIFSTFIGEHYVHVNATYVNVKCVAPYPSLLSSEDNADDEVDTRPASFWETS

| Structure (SMILES) | IC50 [1] [nM] | IC50 [2] [nM] |
| --- | --- | --- |
| Cn1cc(-c2cnc3nnn(C[C@@H]4CN(c5ncc(-c6ccc(OCCN7CCOCC7)cc6)cn5)CCO4)c3n2)cn1 [Chemical formula 14, (S)-2-((6-(1-methyl-1H-pyrazol-4-yl)-1H-[1,2,3]triazolo[4,5-b]pyrazin-1-yl)methyl)-4-(5-(4-(2-morpholinoethoxy)phenyl)pyrimidin-2-yl)morpholine] | 14 | 4.1 |
| Cn1cc(-c2cnc3nnn(C[C@@H]4CN(c5ncc(-c6ccc(CN7CCOCC7)cc6)cn5)CCO4)c3n2)cn1 [Chemical formula 18, (S)-2-((6-(1-methyl-1H-pyrazol-4-yl)-1H-[1,2,3]triazolo[4,5-b]pyrazin-1-yl)methyl)-4-(5-(4-(morpholinomethyl)phenyl)pyrimidin-2-yl)morpholine] | 5 | 9.6 |
| Cn1cc(-c2cnc3nnn(C[C@@H]4CN(c5ncc(C6CCN(CCO)CC6)cn5)CCO4)c3n2)cn1 [Chemical formula 21, (S)-2-(4-(2-(2-((6-(1-methyl-1H-pyrazol-4-yl)-1H-[1,2,3]triazolo[4,5-b]pyrazin-1-yl)methyl)morpholino)pyrimidin-5-yl)piperidin-1-yl)ethanol] | 5 | 5.6 |
| N#Cc1cc(-c2cnc3nnn(C[C@@H]4CN(c5ncc(C6=CCNCC6)cn5)CCO4)c3n2)ccc1F [Chemical formula 30, (S)-2-fluoro-5-(1-((4-(5-(1,2,3,6-tetrahydropyridin-4-yl)pyrimidin-2-yl)morpholine-2-yl)methyl)-1H-[1,2,3]triazolo[4,5-b]pyrazin-6-yl)benzonitrile] | 2 | 0.11 |
| N#Cc1cccc(-c2cnc3nnn(C[C@@H]4CN(c5ncc(-c6cnn(CCO)c6)cn5)CCO4)c3n2)c1 [Chemical formula 31, (S)-3-(1-((4-(5-(1-(2-hydroxyethyl)-1H-pyrazol-4-yl)pyrimidin-2-yl)morpholin-2-yl)methyl)-1H-[1,2,3]triazolo[4,5-b]pyrazin-6-yl)benzonitrile] | 2 | 0.18 |
| N#Cc1cc(-c2cnc3nnn(C[C@@H]4CN(c5ncc(-c6cnn(CCO)c6)cn5)CCO4)c3n2)ccc1F [Chemical formula 32, (S)-2-fluoro-5-(1-((4-(5-(1-(2-hydroxyethyl)-1H-pyrazol-4-yl)pyrimidin-2-yl)morpholine-2-yl)methyl)-1H-[1,2,3]triazolo[4,5-b]pyrazin-6-yl)benzonitrile] | 1 | 0.14 |
| Cn1cc(-c2cnc3nnn(CC4CCCN(c5ncc(C6=CCNCC6)cn5)C4)c3n2)cn1 (stereo not shown) [Chemical formula 33, 6-(1-methyl-1H-pyrazol-4-yl)-1-((1-(5-(1,2,3,6-tetrahydropyridin-4-yl)pyrimidin-2-yl)piperidin-3-yl)methyl)-1H-[1,2,3]triazolo[4,5-b]pyrazinehydrochloride] | 3 | 9.5 |
| CN1CC=C(c2cnc(N3CCCC(Cn4nnc5ncc(-c6cnn(C)c6)nc54)C3)nc2)CC1 (stereo not shown) [Chemical formula 34, 1-((1-(5-(1-methyl-1,2,3,6-tetrahydropyridin-4-yl)pyrimidin-2-yl)piperidin-3-yl)methyl)-6-(1-methyl-1H-pyrazol-4-yl)-1H-[1,2,3]triazolo[4,5-b]pyrazine] | 3 | 15 |
| Cn1cc(-c2cnc3nnn(CC4CCCN(c5ncc(C6=CCN(CCO)CC6)cn5)C4)c3n2)cn1 (stereo not shown) [Chemical formula 35, 2-(4-(2-(3-((6-(1-methyl-1H-pyrazol-4-yl)-1H-[1,2,3]triazolo[4,5-b]pyrazine-1-yl)methyl)piperidin-1-yl)pyrimidin-5-yl)-5,6-dihydropyridin-1(2H)-yl)ethanol] | 3 | 2 |
| Cn1cc(-c2cnc3nnn(CC4CCCN(c5ncc(-c6cnn(CCO)c6)cn5)C4)c3n2)cn1 (stereo not shown) [Chemical formula 36, 2-(3-(2-(3-((6-(1-methyl-1H-pyrazol-4-yl)-1H-[1,2,3]triazolo[4,5-b]pyrazin-1-yl)methyl)piperidin-1-yl)pyrimidin-5-yl)-1H-pyrazol-1-yl)ethanolhydrochloride] | 2 | 3.8 |
| Cn1cc(-c2cnc3nnn(CC4CCCN(c5ncc(-c6cnn(C7CCNCC7)c6)cn5)C4)c3n2)cn1 (stereo not shown) [Chemical formula 37, 6-(1-methyl-1H-pyrazol-4-yl)-1-((1-(5-(1-(piperidin-4-yl)-1H-pyrazol-3-yl)pyrimidin-2-yl)piperidin-3-yl)methyl)-1H-[1,2,3]triazolo[4,5-b]pyrazinehydrochloride] | 2 | 1.3 |
